In experiment [1] the test system is human colon tumor cell line. As to conditions: cited from earlier work.
In a further experiment the target is T1, human mPGES-1 (Homo sapiens, UniProt O14684).
T1 construct: made in house; host or cells: CHO-K1 cells, transient transfection; microsomal fraction
T1 sequence (O14684 1-152): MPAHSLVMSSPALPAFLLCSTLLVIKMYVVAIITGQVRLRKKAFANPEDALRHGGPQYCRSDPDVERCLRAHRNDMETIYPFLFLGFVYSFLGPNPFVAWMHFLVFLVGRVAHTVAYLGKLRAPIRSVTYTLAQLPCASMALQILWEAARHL
As to the kind of experiment: Microsomal prostaglandin E synthase assay. As to conditions: microsomes of CHO-K1 cells transfected with human mPGES-1; PGE2 by EIA; average of at least n=3; read-out: h-CHO (nM); potency expressed as IC50. The format is biochemical. The protocol: Compounds are tested as inhibitors of prostaglandin E synthase activity in microsomal prostaglandin E synthases, whole cell and in vivo assays. These assays measure prostaglandin E2 (PGE2) synthesis using either Enzymatic Immunoassay (EIA) or mass spectrometry. Cells used for microsomal preparation are CHO-K1 cells transiently transfected with plasmids encoding the human mPGES-1 cDNA. Cells used for cell-based experiments are human A549 (which express human mPGES-1). Guinea pigs are used to test the activity of selected compounds in vivo. In all these assays, 100% activity is defined as the PGE2 production in vehicle-treated samples.
Prostaglandin E synthase microsomal fractions are prepared from CHO-K1 cells transiently transfected with plasmid encoding the human mPGES-1 cDNA. […] The enzyme reactions are performed in 200 mM KPi pH 7.0, 2 mM EDTA and 2.5 mM GSH-reduced form. […] The reaction is terminated by the addition of SnCl2 in 1N HCl (1 mg/ml final).

SMILES strings stand for the structures.

Consider `CC(C)c1ccc2c(c1)c(SC(C)(C)C)c(CC(C)(C)C(=O)O)n2Cc1ccc(Cl)cc1` [MK-886], for which, in experiment [1], the PGE2 formation entry was “inhibits” and the cell proliferation entry is “inhibits”.
With `N#Cc1cccc(C#N)c1-c1nc2c3ccc(Br)cc3c3cc(Cl)ccc3c2[nH]1` [Example 36, 2-(6-bromo-9-chloro-1H-phenanthro[9,10-d]imidazol-2-yl)isophthalonitrile], the IC50 on human mPGES-1 stood at 1.2 nM.
Same read-out and setting: the figure for `CC(C)(O)C#Cc1ccc2c(c1)c1cc(Cl)ccc1c1[nH]c(-c3c(F)cccc3C#N)nc21` [Example 14, 2-[9-chloro-6-(3-hydroxy-3-methylbutyl-1-yn-1-yl)-1H-phenanthro[9,10-d]imidazol-2-yl]-3-fluorobenzonitrile] is 1.8 nM.
For the molecule `CC(C)(O)c1ccc2c(c1)c1cc(Br)ccc1c1nc(-c3c(C#N)cccc3C#N)[nH]c21` [Example 87, 2-[6-bromo-9-(1-hydroxy-1-methylethyl)-1H-phenanthro[9,10-d]imidazol-2-yl]isophthalonitrile], the IC50 on human mPGES-1 stood at 1.9 nM.
Still for that read-out and setting: as for `CC(C)(O)c1ccc2c(c1)c1cc(C#CC3CC3)ccc1c1nc(-c3c(C#N)cccc3C#N)[nH]c21` [Example 88, 2-[6-(cyclopropylethynyl)-9-(1-hydroxy-1-methylethyl)-1H-phenanthro[9,10-d]imidazol-2-yl]isophthalonitrile], the figure is 1.3 nM.

The values are drawn from patent US20090192158A1, “Methods for Treating or Preventing Neoplasias” (priority 2006, published 2009).
